Key:
[1] = system: HeLa; experiment: Photodynamic cytotoxicity against human HeLa cells assessed as cell growth inhibition incubated for 24 hrs followed by medium replacement without compound upon 1 J/cm2 light irradiation and measured after 24 hrs by MTT assay; assay type: functional, cell-based
[2] = system: HeLa; experiment: Cytotoxicity against human HeLa cells assessed as cell growth inhibition incubated for 24 hrs by MTT assay; assay type: functional, cell-based
[3] = system: NCI-H460; experiment: Cytotoxicity against human H460M2 cells assessed as cell growth inhibition incubated for 24 hrs by MTT assay; assay type: functional, cell-based
[4] = system: NCI-H460; experiment: Photodynamic cytotoxicity against human H460M2 cells assessed as cell growth inhibition incubated for 24 hrs followed by medium replacement without compound upon 1 J/cm2 light irradiation and measured after 24 hrs by MTT assay; assay type: functional, cell-based
[5] = system: HBL-100; experiment: Photodynamic cytotoxicity against human HBL-100 cells assessed as cell growth inhibition incubated for 24 hrs followed by medium replacement without compound upon 1 J/cm2 light irradiation and measured after 24 hrs by MTT assay; assay type: functional, cell-based
[6] = system: HBL-100; experiment: Photodynamic cytotoxicity against human HBL-100 cells assessed as cell growth inhibition incubated for 24 hrs by MTT assay; assay type: functional, cell-based
[7] = system: A549; experiment: Cytotoxicity against human A549 cells assessed as cell growth inhibition; assay type: functional, cell-based
[8] = system: A549; experiment: Photodynamic cytotoxicity against human A549 cells assessed as cell growth inhibition upon light irradiation; assay type: functional, cell-based; settings: A549, light or radiation study
[9] = system: HeLa; experiment: Photodynamic cytotoxicity against human HeLa cells assessed as cell growth inhibition incubated for 4 hrs followed by fresh medium replacement without compound upon 6.95 J/cm2 light irradiation for 15 mins and further incubated for 44 hrs by resazurin based fluorimetry; assay type: functional; settings: light or radiation study
[10] = system: HeLa; experiment: Cytotoxicity against human HeLa cells assessed as cell growth inhibition incubated for […] followed by fresh medium replacement without compound and further incubated for 44 hrs under dark condition by resazurin based fluorimetry; assay type: functional
[11] = system: UMUC3; experiment: Photodynamic cytotoxicity against human UMUC3 cells assessed as cell growth inhibition upon 1 J/cm2 light irradiation; assay type: functional, cell-based; settings: UMUC3, light or radiation study
[12] = system: FaDu; experiment: Photodynamic cytotoxicity against human FaDu cells assessed as cell growth inhibition upon 1 J/cm2 light irradiation; assay type: functional, cell-based; settings: light or radiation study
[13] = system: A549; experiment: Cytotoxicity against human A549 cells assessed as cell growth inhibition by WST assay; assay type: functional, cell-based
[14] = system: A549; experiment: Photodynamic cytotoxicity against human A549 cells assessed as cell growth inhibition upon light irradiation by WST assay; assay type: functional, cell-based
[15] = system: FaDu; experiment: Photodynamic cytotoxicity against human FaDu cells assessed as cell growth inhibition upon light irradiation; assay type: functional, cell-based; settings: light or radiation study
[16] = system: UMUC3; experiment: Photodynamic cytotoxicity against human UMUC3 cells assessed as cell growth inhibition upon light irradiation; assay type: functional, cell-based; settings: UMUC3, light or radiation study
[17] = Homo sapiens, A549, light or radiation study

Q: How did the IC50 [1] turn out when `C[n+]1ccc(-c2c3nc(c(-c4cc[n+](C)cc4)c4ccc([nH]4)c(-c4cc[n+](C)cc4)c4nc(c(-c5ccc(C(=O)NCCOCCOCCNC(=O)CN6CCNCCNCC6)cc5)c5ccc2[nH]5)C=C4)C=C3)cc1` was run?
A: Its IC50 is > 100000 nM.

Q: And the IC50 [2]?
A: The IC50 was > 100000 nM.

Q: And the IC50 [3]?
A: Its IC50 is > 100000 nM.

Q: What about the IC50 [4] of the same compound?
A: Its IC50 is > 100000 nM.

Q: What about the IC50 [5] of the same compound?
A: The IC50 was > 100000 nM.

Q: And the IC50 [6]?
A: The IC50 was > 100000 nM.

Q: `C1=Cc2nc1c(-c1ccccc1)c1ccc([nH]1)c(-c1ccccc1)c1nc(c(-c3ccc(OCc4cn(CC[n+]5c6ccccc6cc6[nH]c7ccccc7c65)nn4)cc3)c3ccc([nH]3)c2-c2ccccc2)C=C1` was tested. Which IC50 [7] did it give?
A: Its IC50 is 33600 nM.

Q: And the IC50 [8]?
A: Its IC50 is 2500 nM.

Q: `C1=Cc2nc1c(-c1ccncc1)c1ccc([nH]1)c(-c1ccncc1)c1nc(c(-c3ccncc3)c3ccc([nH]3)c2-c2ccncc2)C=C1` was tested. Which IC50 [9] did it give?
A: The IC50 was 5800 nM.

Q: And the IC50 [10]?
A: Its IC50 is > 100000 nM.

Q: Which IC50 [11] does the source give for `CCc1c(C)c2cc3nc(cc4nc(c5c6[nH]c(cc1[nH]2)c(C)c6C(=O)C5)[C@@H](CCC(=O)OC)[C@@H]4C)C(C)=C3C(C)OCc1cccc(C#Cc2cccc(Nc3ncnc4cc(OCCOC)c(OCCOC)cc34)c2)c1` (stereo partly drawn) here?
A: Its IC50 is 59 nM.

Q: What about the IC50 [12] of the same compound?
A: The IC50 was 35 nM.

Q: For `CCCCCCOC(C)C1=C(C)c2cc3nc(c4c5[nH]c(cc6[nH]c(cc1n2)c(C)c6CC)c(C)c5C(=O)C4)[C@@H](CCC(=O)NCCCCn1cc(-c2cccc(Nc4ncnc5cc(OCCOC)c(OCCOC)cc45)c2)nn1)[C@@H]3C` (stereo partly drawn), which IC50 [11] is on record?
A: Its IC50 is 20 nM.

Q: What about the IC50 [12] of the same compound?
A: Its IC50 is 18 nM.

Q: `C[n+]1ccc(-c2c3nc(c(-c4cc[n+](C)cc4)c4ccc([nH]4)c(-c4cc[n+](C)cc4)c4nc(c(-c5cc[n+](C)cc5)c5ccc2[nH]5)C=C4)C=C3)cc1` was tested. Which IC50 ([13]; Homo sapiens, A549) did it give?
A: Its IC50 is > 100000 nM.

Q: And the IC50 [14, 17]?
A: Its IC50 is 300 nM.

Q: For `C[n+]1ccc(-c2c3nc(c(-c4cc[n+](C)cc4)c4ccc([nH]4)c(-c4cc[n+](C)cc4)c4nc(c(-c5ccc(OCc6cn(CCc7c8[nH]c9ccccc9c8cc[n+]7C)nn6)cc5)c5ccc2[nH]5)C=C4)C=C3)cc1`, which IC50 ([13]; a549) is on record?
A: Its IC50 is > 100000 nM.

Q: What about the IC50 ([14]; a549) of the same compound?
A: The IC50 was 60 nM.

Q: Which IC50 [15] does the source give for `CCCCCCOC(C)C1=C(C)c2cc3nc(c4c5[nH]c(cc6[nH]c(cc1n2)c(C)c6CC)c(C)c5C(=O)C4)[C@@H](CCC(=O)O)[C@@H]3C` (stereo partly drawn) here?
A: The IC50 was 43 nM.

Q: And the IC50 [16]?
A: Its IC50 is 68 nM.

Q: What does the source list for `CCc1c(C)c2cc3nc(cc4nc(c5c6[nH]c(cc1[nH]2)c(C)c6C(=O)C5)[C@@H](CCC(=O)OC)[C@@H]4C)C(C)=C3COCc1cccc(C#Cc2cccc(Nc3ncnc4cc(OCCOC)c(OCCOC)cc34)c2)c1`?
A: IC50 [11]: 76 nM; IC50 [12]: 23 nM

Q: What does the source list for `CCc1c(C)c2cc3nc(cc4nc(c5c6[nH]c(cc1[nH]2)c(C)c6C(=O)C5)[C@@H](CCC(=O)OC)[C@@H]4C)C(C)=C3C(C)OCc1ccc(C#Cc2cccc(Nc3ncnc4cc(OCCOC)c(OCCOC)cc34)c2)cc1` (stereo partly drawn)?
A: IC50 [11]: 21 nM; IC50 [12]: 60 nM

Q: How did the IC50 ([13]; Homo sapiens, A549) turn out when `C1=Cc2nc1c(-c1ccncc1)c1ccc([nH]1)c(-c1ccncc1)c1nc(c(-c3ccc(OCc4cn(CCc5nccc6c5[nH]c5ccccc56)nn4)cc3)c3ccc([nH]3)c2-c2ccncc2)C=C1` was run?
A: Its IC50 is > 100000 nM.

Q: What about the IC50 [14, 17] of the same compound?
A: The IC50 was 43100 nM.

Q: What does the source list for `CCc1c(C)c2cc3nc(cc4nc(c5c6[nH]c(cc1[nH]2)c(C)c6C(=O)C5)[C@@H](CCC(=O)O)[C@@H]4C)C(C)=C3C(C)OCc1cccc(C#Cc2cccc(Nc3ncnc4cc(OCCOC)c(OCCOC)cc34)c2)c1` (stereo partly drawn)?
A: IC50 [11]: 54 nM; IC50 [12]: 31 nM
